Structures can show the parent of a compound that is named as a salt.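 Cultured in 96-well plates, cells were exposed to test compound for 48 hours across five concentrations. Abbreviation: GI50, concentration required for 50% inhibition of growth.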 Activity calls are given as the source filed them. Rule as the data show it: active = GI50 up to about 1.1 µM and inactive = higher.
Assays:
Assay in all cases: NCI-60 cell line screen, 48 h
SNB-78 = system: SNB-78
DLD-1 = system: DLD-1
LXFL 529 = system: LXFL 529
RXF 631 = system: RXF 631
DMS-273 = system: DMS-273
XF498 = system: XF498
NCI/ADR-RES = system: NCI/ADR-RES
T47D = system: T47D
MDA-MB-231 = system: MDA-MB-231

Structure (SMILES)	GI50 (SNB-78)	GI50 (DLD-1)	GI50 (LXFL 529)	GI50 (RXF 631)	GI50 (DMS-273)	GI50 (XF498)	GI50 (NCI/ADR-RES)	GI50 (T47D)	GI50 (MDA-MB-231)
Cc1cc2c(CC(=O)O)n[nH]c2c(C(=O)O)c1C	> 100 µM (inactive)	> 100 µM (inactive)	> 100 µM (inactive)	> 100 µM (inactive)	> 100 µM (inactive)	> 100 µM (inactive)			
O=C1OC(CCCl)(c2ccccc2)CC1CN1CCOCC1 (stereo not drawn)	26.2 µM (inactive)	17.7 µM (inactive)	18.8 µM (inactive)			14.6 µM (inactive)			
CCOc1ccc(N(CC(=O)N2CC(=O)Nc3cc(C)c(C)cc32)C(C)=O)cc1	> 100 µM (inactive)	> 100 µM (inactive)	> 100 µM (inactive)		> 100 µM (inactive)	> 100 µM (inactive)			
Brc1ccc(C2SCc3nc4ccccc4n32)cc1 (stereo not drawn)	6.32 µM (inactive)	10.5 µM (inactive)	7.36 µM (inactive)			11.8 µM (inactive)			
O=C1Sc2ccccc2C(=O)N2CSCC12 (stereo not drawn)	> 100 µM (inactive)	> 100 µM (inactive)	> 100 µM (inactive)		> 100 µM (inactive)	> 100 µM (inactive)			
CC(=O)NNc1ncc(C(=O)/C=C/c2ccccc2C)s1	> 100 µM (inactive)	> 100 µM (inactive)		> 100 µM (inactive)	> 100 µM (inactive)				
COC1=CC(=O)C2C(C1=O)C(c1ccccc1)[C@H]2C (stereo partly drawn)	> 10 µM (inactive)	> 10 µM (inactive)	37.2 µM (inactive)		> 100 µM (inactive)	22.3 µM (inactive)			
O=C(CC1(O)C(=O)Nc2c(Cl)ccc(Cl)c21)c1ccc(Cl)cc1Cl (stereo not drawn)	41.6 µM (inactive)	28 µM (inactive)	14.6 µM (inactive)		16.4 µM (inactive)	19.8 µM (inactive)			
O=C(/N=C(/Nc1ccccc1)SCCS/C(=N\C(=O)c1ccccc1)Nc1ccccc1)c1ccccc1	> 100 µM (inactive)	49.8 µM (inactive)	56.2 µM (inactive)		78.3 µM (inactive)	36.9 µM (inactive)			
O=C1C2C(C(=O)N1Cc1ccccc1)N(Cc1ccccc1)C(=O)N2Cc1ccccc1 (stereo not drawn)	> 100 µM (inactive)	> 100 µM (inactive)	> 100 µM (inactive)	> 100 µM (inactive)		> 100 µM (inactive)			
CCc1cccc(C)c1NC(=O)CCc1nnc(SC)o1	> 100 µM (inactive)	> 100 µM (inactive)	> 100 µM (inactive)		> 100 µM (inactive)	> 100 µM (inactive)			
COc1ccc(C2(CN(C)C)COc3cc(OC)c(OC)cc3C2=O)cc1OC (stereo not drawn)	41.3 µM (inactive)	20.1 µM (inactive)	20.1 µM (inactive)	75.7 µM (inactive)		30.1 µM (inactive)			
Oc1cc(-c2ccccc2)nc2cc(Cl)ccc12	3.34 µM (inactive)	0.384 µM (active)	0.805 µM (active)		0.526 µM (active)	0.304 µM (active)			
Nc1cccc2c1-c1c(cccc1[N+](=O)[O-])C2=O	> 100 µM (inactive)	> 100 µM (inactive)			> 100 µM (inactive)				
O=C1NC2(CCCC2)/C(=N\O)C12CCCC2	> 100 µM (inactive)	> 100 µM (inactive)	> 100 µM (inactive)		> 100 µM (inactive)	> 100 µM (inactive)			
NCCOCn1cc(Cc2cccc(OCc3ccccc3)c2)c(=O)[nH]c1=O	> 100 µM (inactive)	> 100 µM (inactive)	> 100 µM (inactive)		70 µM (inactive)				
CCCCC1(C(NC(=O)c2ccccc2Cl)c2ccncc2)C(=O)N(c2ccccc2)N(c2ccccc2)C1=O (stereo not drawn)	56.8 µM (inactive)	39.7 µM (inactive)	36.2 µM (inactive)		27 µM (inactive)	35.9 µM (inactive)			
O=c1/c(=C/c2ccc(Cl)cc2Cl)sc2nc3ccccc3n12	> 100 µM (inactive)	> 100 µM (inactive)	> 100 µM (inactive)	> 100 µM (inactive)	> 100 µM (inactive)	> 100 µM (inactive)			

Structure (SMILES)	GI50 (SNB-78)	GI50 (DLD-1)	GI50 (LXFL 529)	GI50 (RXF 631)	GI50 (DMS-273)	GI50 (XF498)	GI50 (NCI/ADR-RES)	GI50 (T47D)	GI50 (MDA-MB-231)
CO[C@H]1CC[C@]2(C)C3=CC[C@@]4(C)C(CC[C@@H]4C(C)CC[C@@H](C)C(C)C)C(=CCC2C1)O3 (stereo partly drawn)	> 25 µM (inactive)	> 25 µM (inactive)	> 25 µM (inactive)		> 25 µM (inactive)	> 25 µM (inactive)			
[O-][S+]1Cc2ccccc2CSS1 (stereo not drawn)	20 µM (inactive)	18.1 µM (inactive)	14.1 µM (inactive)	19.8 µM (inactive)	11.8 µM (inactive)	19.7 µM (inactive)			
CC(C)/C=C1\CCC(CN2CCCC2)C1=O (stereo not drawn)	21 µM (inactive)	3.88 µM (inactive)	3.03 µM (inactive)			16.6 µM (inactive)			
COC(=O)C1=CCS(=O)(=O)C1	> 100 µM (inactive)	> 100 µM (inactive)	> 100 µM (inactive)	> 100 µM (inactive)		> 100 µM (inactive)			
N#CC(/C(=N/NC(N)=S)C(=O)Nc1cccc(Cl)c1)c1ccccc1 (stereo not drawn)		> 100 µM (inactive)	> 100 µM (inactive)	> 100 µM (inactive)	> 100 µM (inactive)	> 100 µM (inactive)			
COc1cccc(/C=N/C23CC4CC(CC(C4)C2)C3)c1	> 100 µM (inactive)				> 100 µM (inactive)				
CCC1CCC2CCCC(C)N12 (stereo not drawn)		> 100 µM (inactive)	> 100 µM (inactive)	> 100 µM (inactive)	> 100 µM (inactive)	> 100 µM (inactive)			
CCCCCCCCc1cc2c(O)c(c1)Cc1cc(CCCCCCCC)cc(c1O)Cc1cc(CCCCCCCC)cc(c1O)Cc1cc(CCCCCCCC)cc(c1O)Cc1cc(CCCCCCCC)cc(c1O)Cc1cc(CCCCCCCC)cc(c1O)C2	> 100 µM (inactive)	> 100 µM (inactive)	> 100 µM (inactive)	> 100 µM (inactive)		> 100 µM (inactive)			
CC(C)C1C(=O)NC(CO)Cc2c[nH]c3c(C(c4c[nH]c5ccccc45)C(O)CO)ccc(c23)N1C (stereo not drawn)	54.7 µM (inactive)	> 100 µM (inactive)	96.4 µM (inactive)		> 100 µM (inactive)	20 µM (inactive)			
COc1ccc(S(=O)(=O)O)cc1-n1nc(C(=O)Nc2ccccc2)n[n+]1-c1cc(S(=O)(=O)[O-])ccc1OC							> 100 µM (inactive)	> 100 µM (inactive)	> 100 µM (inactive)
CN(C)c1ccc(/C=C2\N=C(NN)NC2=O)cc1							82.2 µM (inactive)	44.4 µM (inactive)	59.3 µM (inactive)
O=c1[nH]c(=S)[nH]cc1CN1CCOCC1							> 100 µM (inactive)	> 100 µM (inactive)	> 100 µM (inactive)
O=C1CC[C@@H](NC(=O)Cc2ccccc2)C(=O)N1		> 100 µM (inactive)	> 100 µM (inactive)		> 100 µM (inactive)	> 100 µM (inactive)			
C[N+](CCCl)(CCCl)Cc1cccc2cccc([N+](=O)[O-])c12							> 100 µM (inactive)	42.7 µM (inactive)	> 100 µM (inactive)
O=c1cc2n(c(=O)[nH]1)C1OC(C(O)C1O)[C@H]2CCO (stereo partly drawn)	> 100 µM (inactive)	> 100 µM (inactive)	> 100 µM (inactive)		> 100 µM (inactive)				
Cc1nccc2c1[nH]c1cc(O)ccc12 [HARMOL HYDROCHLORIDE]	> 100 µM (inactive)	51.1 µM (inactive)	> 100 µM (inactive)	> 100 µM (inactive)	54.5 µM (inactive)	28.4 µM (inactive)			
CCOc1cn(C2OC(CO)C(O)C2O)c(=O)[nH]c1=O (stereo not drawn)	> 100 µM (inactive)	90.2 µM (inactive)	> 100 µM (inactive)		> 100 µM (inactive)				
